Reference: US9687479B2, “Multisubstituted aromatic compounds as serine protease inhibitors” (VERSEON CORPORATION, priority 2013, dated 2017)

Target: Human thrombin (Homo sapiens (Human), UniProt P00734)
Test: Thrombin protease activity inhibition assay (chromogenic substrate S-2238)
Type: biochemical
Conditions: 3 nM thrombin, 125 μM S-2238, 10 min pre-incubation, RT
In short: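 Thrombin at 3 nM final in 0.05 M Tris pH 7.4, 0.015 M NaCl, 0.01% PEG-8000, at room temperature; compounds as ten-point three-fold dilutions.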

Row | IC50 [µM] | Compound
1 | < 0.1 | CC(C)(C)C(=O)n1nc(-c2cccn(Cc3ccsc3)c2=O)cc1NCc1ccc(Cl)s1 [Cmpd 87, 3-(5-[(5-chlorothiophen-2-yl)methyl]amino-1-(2,2-dimethylpropanoyl)-1H-pyrazol-3-yl)-1-(thiophen-3-ylmethyl)-1,2-dihydropyridin-2-one]
2 | < 0.1 | CC1(C(=O)n2nc(-c3cccn(Cc4ncccn4)c3=O)cc2NCc2ccc(Cl)s2)CCOCC1 [Cmpd 156, 3-(5-[(5-chlorothiophen-2-yl)methyl]amino-1-[(4-methyloxan-4-yl)carbonyl]-1H-pyrazol-3-yl)-1-(pyrimidin-2-ylmethyl)-1,2-dihydropyridin-2-one]
3 | < 0.1 | COCC(C)(C)C(=O)n1nc(-c2cccn(CCN3CCOCC3)c2=O)cc1NCc1ccc(Cl)s1 [Cmpd 107, 3-(5-[(5-chlorothiophen-2-yl)methyl]amino-1-(3-methoxy-2,2-dimethylpropanoyl)-1H-pyrazol-3-yl)-1-[2-(morpholin-4-yl)ethyl]-1,2-dihydropyridin-2-one]
4 | 10 to 100 | O=c1c(-c2cc(NCc3ccc(Cl)s3)[nH]n2)cccn1Cc1nnn[nH]1 [Cmpd 219, 3-(5-[(5-chlorothiophen-2-yl)methyl]amino-1H-pyrazol-3-yl)-1-(1H-1,2,3,4-tetrazol-5-ylmethyl)-1,2-dihydropyridin-2-one]
5 | 10 to 100 | Cn1cccc(-c2cc(NCc3ccc(Cl)s3)n[nH]2)c1=O [Cmpd 236, 3-(5-[(5-chlorothiophen-2-yl)methyl]amino-1H-pyrazol-3-yl)-1-methyl-1,2-dihydropyridin-2-one]
6 | < 0.1 | O=C(c1ccoc1)n1nc(-c2cccn(CCc3ccccc3)c2=O)cc1NCc1ccc(Cl)s1 [Cmpd 172, 3-(5-[(5-chlorothiophen-2-yl)methyl]amino-1-[(furan-3-yl)carbonyl]-1H-pyrazol-3-yl)-1-(2-phenylethyl)-1,2-dihydropyridin-2-one]
7 | < 0.1 | O=C(c1cccc2c1OCCO2)n1nc(-c2cccn(Cc3cccnn3)c2=O)cc1NCc1ccc(Cl)s1 [Cmpd 112, 3-(5-[(5-chlorothiophen-2-yl)methyl]amino-1-[(2,3-dihydro-1,4-benzodioxin-5-yl)carbonyl]-1H-pyrazol-3-yl)-1-(pyridazin-3-ylmethyl)-1,2-dihydropyridin-2-one]
8 | > 100 | O=c1c(-c2cc(NCc3ccc(Cl)s3)[nH]n2)cccn1Cc1cccc2ccccc12 [Cmpd 224, 3-(5-[(5-chlorothiophen-2-yl)methyl]amino-1H-pyrazol-3-yl)-1-(naphthalen-1-ylmethyl)-1,2-dihydropyridin-2-one]
9 | 10 to 100 | O=c1c(-c2cc(NCc3ccc(Cl)s3)[nH]n2)cccn1CCN1CCOCC1 [Cmpd 234, 3-(5-[(5-chlorothiophen-2-yl)methyl]amino-1H-pyrazol-3-yl)-1-[2-(morpholin-4-yl)ethyl]-1,2-dihydropyridin-2-one]
10 | < 0.1 | O=C(c1ccccc1)n1nc(-c2cccn(Cc3ncccn3)c2=O)cc1NCc1ccc(Cl)s1 [Cmpd 69, 3-(1-benzoyl-5-[(5-chlorothiophen-2-yl)methyl]amino-1H-pyrazol-3-yl)-1-(pyrimidin-2-ylmethyl)-1,2-dihydropyridin-2-one]
11 | < 0.1 | CC(C)(C)C(=O)n1nc(-c2cccn(Cc3ccccc3)c2=O)cc1NCc1ccc(Cl)s1 [Cmpd 43, 1-benzyl-3-(5-[(5-chlorothiophen-2-yl)methyl]amino-1-(2,2-dimethylpropanoyl)-1H-pyrazol-3-yl)-1,2-dihydropyridin-2-one]
12 | < 0.1 | CC(C)(C)C(=O)n1nc(-c2cccn(Cc3ccc(Cl)s3)c2=O)cc1NCc1ccc(Cl)s1 [Cmpd 39, 1-[(5-chlorothiophen-2-yl)methyl]-3-(5-[(5-chlorothiophen-2-yl)methyl]amino-1-(2,2-dimethylpropanoyl)-1H-pyrazol-3-yl)-1,2-dihydropyridin-2-one]
13 | < 0.1 | CCOC(=O)Cn1cccc(-c2cc(NCc3ccc(Cl)s3)n(C(=O)c3ccoc3)n2)c1=O [Cmpd 259, ethyl 2-[3-(5-[(5-chlorothiophen-2-yl)methyl]amino-1-[(furan-3-yl)carbonyl]-1H-pyrazol-3-yl)-2-oxo-1,2-dihydropyridin-1-yl]acetate]
